The target of one data set is BSA (Bos taurus, UniProt P02769). In words: Hydrazone hydrolysis in ammonium acetate solution with addition of BSA (RP-HPLC). The data set is classed as physicochemical. To be noted: bovine, BSA (5 µM) in ammonium acetate solution, 20 μM hydrazone, 10 mM ammonium acetate, read-out: free soluble hydrazone after addition of BSA (converted). The method, then: FIG. 4 illustrates the difference in the hydrazone hydrolysis with and without the addition of BSA of product example 1. A freshly prepared 10 mM methanol solution of product example 1 was diluted with an ammonium acetate (10 mM) BSA (5 μM) solution to a final concentration of 20 μM. The free soluble hydrazone was analyzed via RP-HPLC over a sample period of 24 h. The injection volume was 20 μL, the sample was stored at room temperature. The hydrazone peak was exploited for the determination of the hydrazone concentration. After the addition of BSA approximately […] of the available hydrazone was directly associated to the protein. Afterwards, the free hydrazone concentration was almost constant, between 96% and 91%, over the sample period.
Chain of BSA (P02769 25-607): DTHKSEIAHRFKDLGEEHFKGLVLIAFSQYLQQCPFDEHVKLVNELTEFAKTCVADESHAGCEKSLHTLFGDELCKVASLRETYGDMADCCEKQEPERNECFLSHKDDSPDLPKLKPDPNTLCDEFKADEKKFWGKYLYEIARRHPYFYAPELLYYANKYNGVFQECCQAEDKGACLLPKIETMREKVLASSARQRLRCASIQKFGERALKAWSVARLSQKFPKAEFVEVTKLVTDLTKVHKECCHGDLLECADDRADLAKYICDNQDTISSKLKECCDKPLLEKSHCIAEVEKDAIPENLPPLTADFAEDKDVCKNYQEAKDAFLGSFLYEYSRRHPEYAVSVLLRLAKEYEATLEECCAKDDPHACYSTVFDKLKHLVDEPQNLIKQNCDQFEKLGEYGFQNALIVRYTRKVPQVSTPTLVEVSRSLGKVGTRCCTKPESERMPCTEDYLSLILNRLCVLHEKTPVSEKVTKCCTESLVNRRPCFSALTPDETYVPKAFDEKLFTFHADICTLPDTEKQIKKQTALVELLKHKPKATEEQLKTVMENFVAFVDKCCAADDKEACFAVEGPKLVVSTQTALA

The nature of data set [1]: Insolubility observed in the HepG2 viability assay. The data set is classed as physicochemical. To be noted: RPMI culture medium of the HepG2 viability assay, 37 °C, kinetic from dmso stock, RPMI medium (1% L-Glu, 10% FCS), read-out: concentration from/at which insoluble. Here is the method:
Cell viability was assayed on HepG2 cells. HepG2 cells were cultured in 96-well black culture plates with transparent bottom in RPMI medium (1% L-Glu, 10% FCS). 3 hours after plating, different drug concentrations (0.1 μM-100 μM) or DMSO as control were added. Chlorpromazine hydrochloride (Sigma, # C0982) and cycloheximide (Sigma, # C1988) were used as control substances. Each concentration was run in triplicates. After 48 hours of incubation, Alamar Blue reagent (BIOSOURCE, # DAL1100) was added and plates were incubated for 4 hours at […]. Absorbance was measured in the Tecan-plate reader (Tecan, infinite M200) at 570 nm and 600 nm. Product example 1 was insoluble from a concentration of 50 μM, product example 33 from 30 μM and product example 23 at 100 μM.

The subject of a further data set is tubulin. In words: Tubulin polymerization assay (Cytoskeleton, Inc.). The data set is classed as biochemical. To be noted: various concentrations. Here is the method: The tubulin polymerization assay (Cytoskeleton, Inc., Denver, Colo., USA, #BK011) was performed in accordance to the instruction manual.
A further data set relates to HTT-Q53 protein. The data set is described as follows: GST-Htt-Q53 filter assay with conformational CAG antibody. The data set is classed as biochemical. As to conditions: samples at 0, 4, 5 and 6 h, 30° C. The method, then: GST-Htt-Q53-protein stock solution was ultra-centrifugated (40 min, 55.000 rpm [TLA-55 rotor], 4° C.); the supernatant was diluted with H2O to a final concentration of 2 μM. DMSO as a control, or drugs at various concentrations were added to the supernatant of GST-Htt-Q53 protein which was preincubated with PreScission Protease (GE Healthcare, #27-0843-01) in Tris-buffer (A:B=1:1; A:50 mM Tris, 150 mM NaCl, pH=6.8; B:1 mM EDTA, pH=8.0+10 mM DTT) and incubated at 30° C. (300 rpm). Samples were taken at 0, 4, 5 and 6 h. The samples were diluted with SDS-buffer (4% SDS, 100 mM DTT) and heated at 98° C. for 5 min. Samples were filtered through a cellulose-acetate membrane which was equilibrated with SDS solution (0.1%). The membrane was washed twice (SDS, 0.1%), blocked with skim milk (3% in PBS) for 30 min and developed with CAG antibody over night at 4° C. and with peroxidase labeled anti rabbit-antibody for 1 h at room temperature. The membrane was washed (2×TBS-0.05% Tween-20, 2×TBS) and luminescence was recorded with Chem Glow.

≈ marks a conversion by molar mass, not a printed value.

As for `Oc1ccc(C=NNc2c(Cl)cc(C(F)(F)F)cc2Cl)c(O)c1` [Example 1, 4-((2-(2,6-Dichloro-4-(trifluoromethyl)phenyl)hydrazono)methyl)benzene-1,3-diol], the fraction unbound at 20 µM at BSA is roughly 0.83. In addition, in data set [1], the solubility is no less than 50 µM. For the same compound, the “effect on tubulin polymerization” value in the data set on tubulin was “no effect”. Moreover, the “change in conformation of the HTT-Q53 protein detected by the conformational CAG antibody” value in the data set with HTT-Q53 protein is reported as “time-dependent change in conformation”.

With `O=[N+]([O-])c1ccc(NN=Cc2ccc(O)cc2O)cc1` [Example 33, 4-((2-(4-Nitrophenyl)hydrazono)methyl)benzene-1,3-diol], in data set [1], the solubility is no less than 30 µM.

Consider `Oc1ccc(C=NNc2c(F)c(F)c(F)c(F)c2F)c(O)c1` [Example 23, 4-((2-(Perfluorophenyl)hydrazono)methyl)benzene-1,3-diol], for which the solubility in data set [1] was found to be 100 µM (≈ 31.8 µg/mL). In the data set on HTT-Q53 protein, the “change in conformation of the HTT-Q53 protein detected by the conformational CAG antibody” value is reported as “time-dependent change in conformation”.

Source of the values: patent US9512066B2, “Enhancers of protein degradation” (MAX-DELBRUCK-CENTRUM FUR MOLEKULARE MEDIZIN, priority 2009, dated 2016).
